# Reference: PubChem BioAssay (NCI)
#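 48-hour exposure; five concentrations; linearly interpolated endpoints. Definition used: TGI = concentration required for complete inhibition of growth.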
# Assays:
# Assay in all cases: NCI-60 cell line screen, 48 h
# HL-60(TB) leukemia = test system: HL-60(TB) leukemia
# DMS 114 small cell lung = test system: DMS 114 small cell lung
# SNB-19 CNS = test system: SNB-19 CNS
# SF-268 CNS = test system: SF-268 CNS
# OVCAR-8 ovarian = test system: OVCAR-8 ovarian
# SK-MEL-2 melanoma = test system: SK-MEL-2 melanoma
# CCRF-CEM leukemia = test system: CCRF-CEM leukemia
# NCI-H522 lung = test system: NCI-H522 lung
# HOP-92 NSCLC = test system: HOP-92 NSCLC
# A549 NSCLC = test system: A549 NSCLC
# EKVX NSCLC = test system: EKVX NSCLC
# RPMI-8226 leukemia = test system: RPMI-8226 leukemia
# SW-620 colon = test system: SW-620 colon
# KM12 colon = test system: KM12 colon
# ACHN renal = test system: ACHN renal
# IGROV1 ovarian = test system: IGROV1 ovarian
# K-562 leukemia = test system: K-562 leukemia
# M14 melanoma = test system: M14 melanoma
# DLD-1 colon = test system: DLD-1 colon
# OVCAR-5 ovarian = test system: OVCAR-5 ovarian
# HCT-116 colon = test system: HCT-116 colon
# SF-295 CNS = test system: SF-295 CNS
# SK-MEL-5 melanoma = test system: SK-MEL-5 melanoma
# COLO 205 colon = test system: COLO 205 colon
# UO-31 renal = test system: UO-31 renal
# DMS 273 small cell lung = test system: DMS 273 small cell lung
# M19-MEL melanoma = test system: M19-MEL melanoma
# SNB-75 CNS = test system: SNB-75 CNS
# SK-MEL-28 melanoma = test system: SK-MEL-28 melanoma
# OVCAR-3 ovarian = test system: OVCAR-3 ovarian
# MALME-3M melanoma = test system: MALME-3M melanoma
# LOX IMVI melanoma = test system: LOX IMVI melanoma
# 786-0 renal = test system: 786-0 renal
# HOP-62 NSCLC = test system: HOP-62 NSCLC
# U251 CNS = test system: U251 CNS
# KM20L2 colon = test system: KM20L2 colon
# SF-539 CNS = test system: SF-539 CNS
# CAKI-1 renal = test system: CAKI-1 renal
# UACC-62 melanoma = test system: UACC-62 melanoma
# NCI-H23 lung = test system: NCI-H23 lung
# SR leukemia = test system: SR leukemia
# SNB-78 CNS = test system: SNB-78 CNS
# A498 renal = test system: A498 renal
# NCI-H226 lung = test system: NCI-H226 lung
# TK-10 renal = test system: TK-10 renal
# LXFL 529 NSCLC = test system: LXFL 529 NSCLC
# NCI-H460 lung = test system: NCI-H460 lung
# SN12C renal = test system: SN12C renal
# HT29 colon = test system: HT29 colon
# SK-OV-3 ovarian = test system: SK-OV-3 ovarian
# UACC-257 melanoma = test system: UACC-257 melanoma
# MOLT-4 leukemia = test system: MOLT-4 leukemia
# HCC-2998 colon = test system: HCC-2998 colon
# OVCAR-4 ovarian = test system: OVCAR-4 ovarian
# RXF 393 renal = test system: RXF 393 renal
# XF 498 CNS = test system: XF 498 CNS
# HCT-15 colon = test system: HCT-15 colon
compound,measurement,setting,value
CCOC1=CP(=O)(OCC)CC(C)=C1Cl (centres undefined),TGI,HL-60(TB) leukemia,> 100 µM
same,TGI,DMS 114 small cell lung,> 100 µM
same,TGI,SNB-19 CNS,> 100 µM
same,TGI,SF-268 CNS,> 100 µM
same,TGI,OVCAR-8 ovarian,> 100 µM
same,TGI,SK-MEL-2 melanoma,> 100 µM
same,TGI,CCRF-CEM leukemia,> 100 µM
same,TGI,NCI-H522 lung,> 100 µM
same,TGI,HOP-92 NSCLC,> 100 µM
same,TGI,A549 NSCLC,> 100 µM
same,TGI,EKVX NSCLC,> 100 µM
same,TGI,RPMI-8226 leukemia,> 100 µM
same,TGI,SW-620 colon,> 100 µM
same,TGI,KM12 colon,> 100 µM
same,TGI,ACHN renal,> 100 µM
same,TGI,IGROV1 ovarian,> 100 µM
same,TGI,K-562 leukemia,> 100 µM
same,TGI,M14 melanoma,> 100 µM
same,TGI,DLD-1 colon,> 100 µM
same,TGI,OVCAR-5 ovarian,> 100 µM
same,TGI,HCT-116 colon,> 100 µM
same,TGI,SF-295 CNS,> 100 µM
same,TGI,SK-MEL-5 melanoma,> 100 µM
same,TGI,COLO 205 colon,25.2 µM
same,TGI,UO-31 renal,> 100 µM
same,TGI,DMS 273 small cell lung,75.2 µM
same,TGI,M19-MEL melanoma,> 100 µM
same,TGI,SNB-75 CNS,> 100 µM
same,TGI,SK-MEL-28 melanoma,> 100 µM
same,TGI,OVCAR-3 ovarian,> 100 µM
same,TGI,MALME-3M melanoma,> 100 µM
same,TGI,LOX IMVI melanoma,> 100 µM
same,TGI,786-0 renal,> 100 µM
same,TGI,HOP-62 NSCLC,> 100 µM
same,TGI,U251 CNS,> 100 µM
same,TGI,KM20L2 colon,> 100 µM
same,TGI,SF-539 CNS,> 100 µM
same,TGI,CAKI-1 renal,> 100 µM
same,TGI,UACC-62 melanoma,> 100 µM
same,TGI,NCI-H23 lung,> 100 µM
same,TGI,SR leukemia,> 100 µM
same,TGI,SNB-78 CNS,> 100 µM
same,TGI,A498 renal,> 100 µM
same,TGI,NCI-H226 lung,> 100 µM
same,TGI,TK-10 renal,> 100 µM
same,TGI,LXFL 529 NSCLC,> 100 µM
same,TGI,NCI-H460 lung,> 100 µM
same,TGI,SN12C renal,> 100 µM
same,TGI,HT29 colon,> 100 µM
same,TGI,SK-OV-3 ovarian,> 100 µM
same,TGI,UACC-257 melanoma,> 100 µM
same,TGI,MOLT-4 leukemia,> 100 µM
same,TGI,HCC-2998 colon,> 100 µM
O=c1[nH]c(=O)n(C2OC(CO)C(N(O)Cc3ccc(F)cc3)C2O)cc1Br (centres undefined),TGI,HL-60(TB) leukemia,> 100 µM
same,TGI,DMS 114 small cell lung,> 100 µM
same,TGI,SNB-19 CNS,> 100 µM
same,TGI,SF-268 CNS,> 100 µM
same,TGI,OVCAR-8 ovarian,> 100 µM
same,TGI,CCRF-CEM leukemia,> 100 µM
same,TGI,NCI-H522 lung,> 100 µM
same,TGI,HOP-92 NSCLC,> 100 µM
same,TGI,A549 NSCLC,> 100 µM
same,TGI,EKVX NSCLC,> 100 µM
same,TGI,RPMI-8226 leukemia,> 100 µM
same,TGI,SW-620 colon,> 100 µM
same,TGI,KM12 colon,> 100 µM
same,TGI,OVCAR-4 ovarian,> 100 µM
same,TGI,ACHN renal,> 100 µM
same,TGI,IGROV1 ovarian,> 100 µM
same,TGI,K-562 leukemia,> 100 µM
same,TGI,M14 melanoma,> 100 µM
same,TGI,DLD-1 colon,> 100 µM
same,TGI,OVCAR-5 ovarian,> 100 µM
same,TGI,HCT-116 colon,> 100 µM
same,TGI,SF-295 CNS,> 100 µM
same,TGI,SK-MEL-5 melanoma,> 100 µM
same,TGI,COLO 205 colon,> 100 µM
same,TGI,UO-31 renal,> 100 µM
same,TGI,DMS 273 small cell lung,> 100 µM
same,TGI,M19-MEL melanoma,> 100 µM
same,TGI,SNB-75 CNS,> 100 µM
same,TGI,SK-MEL-28 melanoma,> 100 µM
same,TGI,OVCAR-3 ovarian,> 100 µM
same,TGI,LOX IMVI melanoma,> 100 µM
same,TGI,786-0 renal,> 100 µM
same,TGI,U251 CNS,> 100 µM
same,TGI,KM20L2 colon,> 100 µM
same,TGI,SF-539 CNS,> 100 µM
same,TGI,UACC-62 melanoma,> 100 µM
same,TGI,NCI-H23 lung,> 100 µM
same,TGI,SR leukemia,> 100 µM
same,TGI,SNB-78 CNS,> 100 µM
same,TGI,A498 renal,> 100 µM
same,TGI,TK-10 renal,> 100 µM
same,TGI,LXFL 529 NSCLC,> 100 µM
same,TGI,NCI-H460 lung,> 100 µM
same,TGI,SN12C renal,> 100 µM
same,TGI,HT29 colon,> 100 µM
same,TGI,SK-OV-3 ovarian,> 100 µM
same,TGI,UACC-257 melanoma,> 100 µM
same,TGI,RXF 393 renal,> 100 µM
same,TGI,MOLT-4 leukemia,> 100 µM
same,TGI,HCC-2998 colon,> 100 µM
COc1ccc2c(c1)O[C@@H]1c3ccc(OC)cc3OC[C@H]21,TGI,HL-60(TB) leukemia,> 100 µM
same,TGI,DMS 114 small cell lung,58.9 µM
same,TGI,SNB-19 CNS,> 100 µM
same,TGI,SF-268 CNS,> 100 µM
same,TGI,OVCAR-8 ovarian,> 100 µM
same,TGI,SK-MEL-2 melanoma,89.6 µM
same,TGI,CCRF-CEM leukemia,80.5 µM
same,TGI,NCI-H522 lung,51.6 µM
same,TGI,HOP-92 NSCLC,79.7 µM
same,TGI,A549 NSCLC,> 100 µM
same,TGI,RPMI-8226 leukemia,> 100 µM
same,TGI,SW-620 colon,> 100 µM
same,TGI,KM12 colon,> 100 µM
same,TGI,OVCAR-4 ovarian,> 100 µM
same,TGI,ACHN renal,> 100 µM
same,TGI,IGROV1 ovarian,> 100 µM
same,TGI,K-562 leukemia,57.3 µM
same,TGI,M14 melanoma,> 100 µM
same,TGI,DLD-1 colon,> 100 µM
same,TGI,OVCAR-5 ovarian,> 100 µM
same,TGI,HCT-116 colon,> 100 µM
same,TGI,SF-295 CNS,> 100 µM
same,TGI,SK-MEL-5 melanoma,39.2 µM
same,TGI,XF 498 CNS,> 100 µM
same,TGI,UO-31 renal,77.6 µM
same,TGI,DMS 273 small cell lung,> 100 µM
same,TGI,M19-MEL melanoma,> 100 µM
same,TGI,SNB-75 CNS,51.4 µM
same,TGI,SK-MEL-28 melanoma,> 100 µM
same,TGI,OVCAR-3 ovarian,> 100 µM
same,TGI,MALME-3M melanoma,> 100 µM
same,TGI,LOX IMVI melanoma,83.7 µM
same,TGI,786-0 renal,72.1 µM
same,TGI,HOP-62 NSCLC,> 100 µM
same,TGI,U251 CNS,> 100 µM
same,TGI,SF-539 CNS,> 100 µM
same,TGI,CAKI-1 renal,> 100 µM
same,TGI,UACC-62 melanoma,> 100 µM
same,TGI,HCT-15 colon,> 100 µM
same,TGI,NCI-H23 lung,> 100 µM
same,TGI,SR leukemia,97.5 µM
same,TGI,SNB-78 CNS,> 100 µM
same,TGI,NCI-H226 lung,69.6 µM
same,TGI,TK-10 renal,> 100 µM
same,TGI,LXFL 529 NSCLC,> 100 µM
same,TGI,NCI-H460 lung,82 µM
same,TGI,SN12C renal,> 100 µM
same,TGI,SK-OV-3 ovarian,> 100 µM
same,TGI,RXF 393 renal,51 µM
same,TGI,MOLT-4 leukemia,50.3 µM
same,TGI,HCC-2998 colon,> 100 µM
